Experimental data reported in patent US7868135B2, “Compositions of lipopeptide antibiotic derivatives and methods of use thereof” (priority 2003, dated 2011).
Where two headings read alike, the source gives them in different places. Starred links: 1 amine or outer side, 2 acyl side, 3 side chain; linkers in the order of their positions; H or OH if unused. Positions of bridges follow the written chain, without caps; N, C: chain ends. Non-standard residues stand in square brackets, D forms with d. Residues, ends and D or L forms follow the SMILES beside them. ξ: configuration not given here. *: point of attachment. ξAbu(βξ-NH2) = CC(N[*:3])C(N[*:1])C(=O)[*:2]; ξAsp(βξ-Me) = CC(C(=O)O)C(N)C(=O)O; X2 = O=C(CCc1ccc(N[*:1])cc1)[*:2]; X1 = O=C(Cc1ccc(N[*:1])cc1)[*:2]; ξAbu(3ξ-NH2) = CC(N)C(N)C(=O)O; Lauroyl = CCCCCCCCCCCC(=O)*; Pip = O=C(O)[CH]1CCCCN1

Tests used:
[1] = tested on: Staphylococcus aureus (MSSA)
In short: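 Broth microdilution MIC per NCCLS M7-A6 with doubling serial dilutions, in cation-adjusted Mueller-Hinton broth supplemented with 0.625 mM calcium.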

[2] = In vivo half-life after single i.v. administration, mice; details: female, Swiss CD1, mouse, plasma, iv, 10 mg/kg
Protocol: Yet other exemplary in vivo models can be used to characterize the pharmacokinetics and pharmacodynamic parameters of antimicrobial compounds of this disclosure. Some parameters that can be measured include an in vivo half-life of a compound, elimination rate and clearance, volume of distribution, and bioavailability. For example, briefly, compounds can be administered as a single i.v. or oral (p.o.) dose in mice or rats. At various time points (ranging from 1 minute to 72 hours), blood from treated animals is collected and the concentration of lipopeptide derivative in the ex vivo plasma can be quantified by, for example, liquid chromatography with mass spectrometric detection (LC/MS). After quantification, pharmacokinetics parameters can be calculated using methods known in the art, such as a one compartment model with mono-exponential decay and linear regression analysis (see, e.g., Fantin et al., Antimicrob. Agents Chemotherap. 35: 1413. 1991).
A pharmacokinetic parameter that can be measured, and which aids in determining efficacy, after a single i.v. administration of an antimicrobial lipopeptide derivative of the instant disclosure is the systemic half-life of the compound. Briefly, test compounds were dissolved in a 5% mannitol solution (pH was then adjusted) to a concentration of 1 mg/mL (w/v). A single intravenous injection in the lateral caudal vein of Swiss CD1 mice (5 to 6 weeks old, female) or Sprague Dawley rats (male) was used to administer the lipopeptide derivative at a final dose of 10 mg/kg. At various time points (ranging from about 4 minutes to about 24 hours for mice, and 48 or 72 hours for rats) mice were sacrificed and blood was harvested. The concentration of lipopeptide derivative in ex vivo plasma was quantified using liquid chromatography (LC) with mass spectrometric detection (MS).

[3] = tested on: S. aureus Smith (SAU0017, ATCC 19636); assay: Intraperitoneal murine model of protection against infection (ED50, Table 21); type: in vivo, Staphylococcus aureus; details: Swiss CD1 mice infected i.p., compound i.v.
Source text: (§1) A variety of in vivo models may be used to assess the antimicrobial properties of lipopeptide derivative compounds of this disclosure. For example, antimicrobial compounds of the instant disclosure may be tested for efficacy by measuring a compound's ability to protect a mouse against a microbial infection, such as an infection or disease caused by or related to Gram-positive bacteria, including Staphylococcus aureus, Streptococcus pneumoniae, and Enterococcus faecalis. […] A certain period after infection, mice are then individually treated, for example intravenously (i.v.), with a lipopeptide derivative of this disclosure.
(§2) Antimicrobial lipopeptide derivatives of the instant invention were tested for antimicrobial activity against Gram-positive bacteria in an intraperitoneal (i.p.) murine model (i.e., bacteria were injected i.p. and lipopeptide compounds were administered intravenously (i.v.)). Mice were infected with Staphylococcus aureus, Streptococcus pneumoniae, or Enterococcus faecalis, which were prepared as follows: S. aureus Smith (SAU0017, ATCC 19636) were grown in culture overnight on trypticase soy broth, harvested and then resuspended in fresh media containing 5% mucin (Sigma Chemical Co.); S. pneumoniae (SPN 0032, ATCC 10813) were grown overnight on blood agar plates and re-suspended in 0.9% sterile saline; and E. faecalis EFS0040 (clinical isolate) were grown overnight in culture on blood heart infusion broth, washed and resuspended in 0.9% saline and mixed with equal volume of sterile fecal rat extract. Swiss CD1 mice were each infected i.p. with bacteria at the following doses: S. aureus at 10^6 CFU/mouse; S. pneumoniae at 10^2 CFU/mouse; or E. faecalis at 10^7.5 CFU/mouse. […] The ED50 for each compound was calculated using the method of Reed and Meunch (Am. J. Hyg. 27: 493, 1938).

[4] = tested on: E. faecalis EFS0040 (clinical isolate); assay: as above; type: in vivo, Enterococcus faecalis; details: Swiss CD1 mice infected i.p., compound i.v.
Source text: as §1, §2

[5] = Acute toxicity, maximum tolerated dose (MTD); details: Swiss CD1, mouse, in vivo, iv
Protocol: Another measure of toxicity is the maximum tolerated dose (MTD), which is determined as a dose level that is not accompanied by mortality or life-threatening toxicity. The dose ratio between toxic and therapeutic effect is the therapeutic index. […] The data obtained from these cell culture assays and animal studies can be used in formulating a dosage range that is not toxic for use in human subjects. […] The dosage may vary within this range depending upon the dosage form employed and the route of administration utilized. The exact formulation, route of administration and dosage can be chosen by the individual physician in view of the patient's condition or need thereof (see, e.g., Fingl et al., 1975, In: The Pharmacological Basis of Therapeutics, Chapter 1).
For example, to examine acute toxicity, lipopeptide antibiotics of the invention can be tested in an animal model, such as Swiss CD1 mice, to determine the MTD. In certain embodiments, the animals used to test toxicity of a particular compound can be approximately 5-6 weeks old at the start of the experiment and weigh 22-26 g. The lipopeptides may be administered intravenously (i.v.) into, for example, the caudal tail vein at dose levels that range from about 50 to about 500 mg/kg, or from about 75 to about 250 mg/kg, or from about 100 to about 200 mg/kg, or at a dose range at or below 100 mg/kg. The animals are generally observed immediately after administration, 1-2 hours post administration, 5-8 hours post administration, and once daily thereafter. Observations include both the activity level of the mouse as well as any physical side effects from the administered dose. The animal weight is recorded on day 0 (immediately before dosing) and on day 7.

[6] = tested on: Enterococcus faecium EFM0101 (VRE, MDR); assay: Broad spectrum MIC, Table 17/18 column A; type: cell-based; details: condition A of Table 17, in µg/mL
Protocol: (§3) The antimicrobial lipopeptide derivatives described herein were tested for antimicrobial activity against Gram-positive bacteria as follows. The minimum inhibitory concentrations (MIC) of the antimicrobial lipopeptide derivatives of the invention were determined using NCCLS guidelines M7-A6 (2003) with a slight modification in that doubling serial dilutions were used to dilute the test compounds. The broth phase microdilution method was used. Isolated colonies of Staphylococcus aureus (MSSA) from an 18-24 hour blood agar plate cultures were used to inoculate cation adjusted Mueller-Hinton broth (CAMHB) supplemented with 0.625 mM calcium. […] A negative control containing media alone and a positive growth control containing bacteria with media alone were also included. MICs were determined after incubating the plates at about 37° C. for 24 hours. […] In Tables 1 to 16, R is the core cyclic peptide of amphomycin or aspartocin, which can be in the form of a β-isomer, an anhydro, a dianhydro, or any combination thereof. […] Furthermore, a person of skill in the art will appreciate that all the pounds, or groups of compounds, derived from the various combinations of and substituents shown in Tables 1 to 16, are disclosed by the present the same extent as if each compound or group of compounds was set forth individually.
(§4) Antimicrobial lipopeptide derivatives of the instant invention were tested for antimicrobial activity against Gram-positive bacteria in a variety of media conditions. The […] (MIC) of the antimicrobial lipopeptide derivatives were determined as described in Example 376. The various media used are described in Table 17.

[7] = tested on: Enterococcus faecalis EFS0004 (VSE); assay: Broad spectrum MIC, Table 17/18 B, C, D (CAMHB; + 0.625 mM calcium; + calcium and 30% bovine serum); type: cell-based; details: in µg/mL
Protocol: as §3, §4

[8] = tested on: Staphylococcus aureus SAU0017 (MSSA); assay: Broad spectrum MIC, Table 17/18 columns E, F (+ 0.625 mM calcium; + calcium and 30% bovine serum); type: cell-based; details: in µg/mL
Protocol: as §3, §4

[9] = tested on: Staphylococcus aureus SAU0031 (VISA); assay: Broad spectrum MIC, Table 17/18 column G; type: cell-based; details: condition G of Table 17, in µg/mL
Protocol: as §3, §4

[10] = tested on: Staphylococcus aureus SAU0065 (MRSA); assay: Broad spectrum MIC, Table 17/18 column H; type: cell-based; details: condition H of Table 17, in µg/mL
Protocol: as §3, §4

[11] = tested on: Staphylococcus epidermidis SEP0375 (MRSE); assay: Broad spectrum MIC, Table 17/18 column I; type: cell-based; details: condition I of Table 17, in µg/mL
Protocol: as §3, §4

[12] = tested on: Streptococcus pneumoniae SPN0002 (PISP); assay: Broad spectrum MIC, Table 17/18 column J; type: cell-based; details: condition J of Table 17, in µg/mL
Protocol: as §3, §4

[13] = tested on: Streptococcus pneumoniae SPN0023 (PRSP); assay: Broad spectrum MIC, Table 17/18 column K; type: cell-based; details: condition K of Table 17, in µg/mL
Protocol: as §3, §4

[14] = tested on: Streptococcus pneumoniae SPN0032 (PSSP); assay: Broad spectrum MIC, Table 17/18 column L; type: cell-based; details: condition L of Table 17, in µg/mL
Protocol: as §3, §4

[15] = tested on: Streptococcus pyogenes SPY0001 (PenS); assay: Broad spectrum MIC, Table 17/18 column M; type: cell-based; details: condition M of Table 17, in µg/mL
Protocol: as §3, §4

[16] = tested on: S. pneumoniae (SPN 0032, ATCC 10813); assay: Intraperitoneal murine model of protection against infection (ED50, Table 21); type: in vivo, Streptococcus pneumoniae; details: Swiss CD1 mice infected i.p., compound i.v.
Source text: as §1, §2

| Molecule | half-life [2] [h] | ED50 in Mice, S. aureus (SAU0017) [3] [mg/kg] | MIC ([1]; 24 h) [µg/mL] | MTD at 7 days [5] [mg/kg] | further results |
| --- | --- | --- | --- | --- | --- |
| CCCCCCCCCCCCCC(=O)NC(CC(=O)O)C(=O)NC1C(=O)N2CCCCC2C(=O)NC(C(C)C(=O)O)C(=O)NC(CC(=O)O)C(=O)NCC(=O)NC(CC(=O)O)C(=O)NCC(=O)NC(C(C)NC(=O)CNC)C(=O)NC(C(C)C)C(=O)N2CCCC2C(=O)NC1C (stereo not drawn) [Compound 60, C14-Amphomycin-9-Sar] | 4.13 | 10 | – | – | MIC ([1]; S. aureus (MSSA), CAMHB supplemented with 0.625 mM calcium, 24 hours at about 37° C., a range = compound tested multiple times): 60/0.5 μg/mL |
| CC(=O)Nc1ccc(C(=O)NC(CC(=O)O)C(=O)NC2C(=O)N3CCCCC3C(=O)NC(C(C)C(=O)O)C(=O)NC(CC(=O)O)C(=O)NCC(=O)NC(CC(=O)O)C(=O)NCC(=O)NC(C(C)N)C(=O)NC(C(C)C)C(=O)N3CCCC3C(=O)NC2C)cc1 (stereo not drawn) [Compound 85, C2-PABA-Amphomycin] | 5.17 | 6.5 | 2 to 4 | 50 to 200 | ED50 in Mice, E. faecalis (EFS0040) [4]: 5.7 mg/kg |
| CCCCCCCCCCCC(=O)Nc1ccc(CCC(=O)NC(CC(=O)O)C(=O)NC2C(=O)N3CCCCC3C(=O)NC(C(C)C(=O)O)C(=O)NC(CC(=O)O)C(=O)NCC(=O)NC(CC(=O)O)C(=O)NCC(=O)NC(C(C)N)C(=O)NC(C(C)C)C(=O)N3CCCC3C(=O)NC2C)cc1 (stereo not drawn) [Compound 108, C12-(p-Aminophenylpropanoyl)-Amphomycin] (Lauroyl-[X2]D[ξAbu(βξ-NH2)][Pip][ξAsp(βξ-Me)]DGDG[ξAbu(3ξ-NH2)]VP; lactam 3-C; configuration not given here) | 4.55 | 6.5 | 0.5 | 50 to 200 | – |
| CCCCCCCCCCCC(=O)Nc1ccc(CC(=O)NC(CC(=O)O)C(=O)NC2C(=O)N3CCCCC3C(=O)NC(C(C)C(=O)O)C(=O)NC(CC(=O)O)C(=O)NCC(=O)NC(CC(=O)O)C(=O)NCC(=O)NC(C(C)N)C(=O)NC(C(C)C)C(=O)N3CCCC3C(=O)NC2C)cc1 (stereo not drawn) [Compound 119, C12-(p-Apa)-Amphomycin] (Lauroyl-[X1]D[ξAbu(βξ-NH2)][Pip][ξAsp(βξ-Me)]DGDG[ξAbu(3ξ-NH2)]VP; lactam 3-C; configuration not given here) | 4.22 | 7.6 | 0.25 | 50 to 200 | – |
| CCCCCCCCCCCCCCNC(=O)NC(CC(=O)O)C(=O)NC1C(=O)N2CCCCC2C(=O)NC(C(C)C(=O)O)C(=O)NC(CC(=O)O)C(=O)NCC(=O)NC(CC(=O)O)C(=O)NCC(=O)NC(C(C)N)C(=O)NC(C(C)C)C(=O)N2CCCC2C(=O)NC1C (stereo not drawn) [Compound 253, CH3—(CH2)13—NH—C(═O)-Amphomycin] | 5.15 | 4.8 | 0.5 to 1 | – | MIC, media condition A [6]: 0.5-1; MIC, media condition B ([7]; condition B: CAMHB): 1; MIC, media condition C ([7]; condition C: + 0.625 mM calcium): 0.5-1; MIC, media condition D ([7]; condition D: + calcium and 30% bovine serum): 16-32; MIC, media condition E ([8]; condition E: + 0.625 mM calcium): 0.5-1; MIC, media condition F ([8]; condition F: + calcium and 30% bovine serum): 2-4; MIC, media condition G [9]: 2-4; MIC, media condition H [10]: 1-2; MIC, media condition I [11]: 1; MIC, media condition J [12]: 0.125; MIC, media condition K [13]: 0.125; MIC, media condition L [14]: 0.125; MIC, media condition M [15]: 0.25 |
| amphomycin [reference compound] | – | 5.4 | – | – | ED50 in Mice, S. pneumoniae (SPN0032) [16]: 2.0 mg/kg |
| aspartocin [reference compound] | – | 5.4 | – | – | ED50 in Mice, S. pneumoniae (SPN0032) [16]: 0.65 mg/kg |
